# Assay results reported in patent publication US7393857B2, “Use of 5-HT3 receptor antagonists for treating musculoskeletal diseases” (Novasearch AG, priority 1999, dated 2008).
# Tests used:
# Assay type in all cases: in vivo, human
# [1] = test system: patients with epicondylitis or periarthropathia humeroscapularis; assay: Enthesiopathy (insertion tendopathy) with infiltration, pain on VAS (Example 4a); conditions: 7 days after local injection
# Excerpt: (§1) Pain is subsequently determined on a visual analogue scale (VAS) that goes from 0 mm (no pain) to 100 mm (strongest pain). • 4a) Enthesiopathy (Insertion Tendopathy) (with infiltration): • (i) patient; Diagnosis: epicondylitis. Rest pain before local injection of tropisetron 30 mm, 7 days later 0 mm. • (ii) patient, diagnosis: periarthropathia humeroscapularis. Rest pain before local injection of tropisetron 85 mm, 7 days after local injection 45 mm. • (iii) Patient, diagnosis: epicondylitis. Rest pain before local injection of tropisetron 35 mm, 7 days thereafter 0 mm. • 4b) Rheumatoid arthritis (intraarticular injection): • (i) patient.
# [2] = test system: patient with cervical syndrome; assay: Spinal syndrome: cervical syndrome, i.v. administration (Examples 5 and 6(i)); conditions: 2 mg i.v., before injection 68 mm
# Excerpt: as §1
# Patient, diagnosis: cervical syndrome. Before injection of 2 mg tropisetron 68 mm rest pain, 24 hours later 35 mm, at day 7 18 mm.
# Patient, diagnosis: cervical syndrome. Before i.v. injection of 2 mg tropisetron 68 mm rest pain, 24 hours later 35 mm, at day 7 18 mm. • (ii) Lumbalgia: […]
# [3] = test system: patients exhibiting implant/insertion tendopathy; assay: Clinical trial: implant/insertion tendopathy, local injection of tropisetron (Example 3); conditions: 2 mg injected once in the area of greatest pain
# Protocol: The condition treated results in the case of the first patient from epicondylitis radialis, in the case of the second patient from insertion tendopathy in the area of insertion of the deltoid muscle and, in the case of the third patient from an enthesiopathy of the Malleolus lateralis. In all three cases, tropisetron is injected once at a dosage of 2 mg in the area of greatest pain, directly into the tissues. In all three cases severity of pain decreases within a period of 60 min. and virtually complete remittal is achieved within 24 hrs., indicating remission from disease remission.
# [4] = test system: patient with damage to the meniscus and arthritic change leading to synovial irritation with knee joint effusion; assay: Clinical case: synovial irritation with knee joint effusion, i.v. tropisetron (Example 2, second patient)
# Protocol: […] 2 mg doses of tropisetron are administered i.v. over a period of 17 days with 15 injections, one each day with a 2 days pause in therapy.
# [5] = test system: patients exhibiting rheumatoid arthritis and severe consequential synovial inflammation; assay: Clinical trial: synovial inflammation/synovitis in rheumatoid arthritis, intraarticular tropisetron (Example 1); conditions: 2 mg intraarticularly once
# [6] = test system: patient with Morbus Still; assay: Left knee joint irritation (Morbus Still), intraarticular injection (Example 4c); conditions: for knee joint circumference: before 44 cm; for pain under strain (VAS): before 70; for pain at rest in the VAS (0-100): before 98
# Excerpt: as §1
# Patient, Morbus Still diagnosed 1.5 years ago. Despite basic treatment with 15 mg methotrexat per week and 20 mg prednisolone per day, the patient suffers from swelling and overheating of the left knee joint for the first time in February 1999. Pain at rest in the VAS 98 (0-100), pain under strain 70. Obvious articular effusion. Knee joint circumference 44 cm, straightening/bending 0°-10°, 115°. 24 hours after an intraarticular injection with 2 mg tropisetron pain at rest in the Visual Analog Scale (VAS) 0, pain under strain 70. […] 7 days later pain at rest in the VAS 0, pain under strain 57, straightening/bending 0°,0°,130°, knee joint circumference 40.5 cm. • 4e) Gonarthrosis: […]
# [7] = test system: patient with activated gonarthritis with effusion; assay: Gonarthrosis, intra-articular injection (Example 4e); conditions: intra-articular 2 mg; for pain at rest on the visual analog scale for pain (0-100): before 43
# Excerpt: as §1
# Patient has activated gonarthritis with effusion for 2 months. Only short-term pain reduction by means of non-steroidal antiphlogistics could be achieved. Following an intra-articular injection with 2 mg tropisetron, pain at rest after 24 hours on the visual analog scale for pain (0-100) sinks from 43 to 25, after 2 days to 13, after 7 days to 10 and in a follow-up check after 17 days to 4. The analog values for pain under strain are 75, 45, 10 and 10, respectively. The effusion is gone after 7 days, as is the overheating of the knee joint.
# [8] = test system: patient with repeated exudation from the knee joint consequential to damage to the meniscus; assay: Clinical case: repeated knee joint exudation after meniscus damage, intra-articular tropisetron (Example 2, first patient); conditions: 2 mg intra-articularly
# Protocol: Prior to the trial the patient received injections of glucocorticoid. The patient receives an injection of 2 mg of tropisetron administered intra-articularly.
# [9] = 24 hours after intraarticular injection of 2 mg
# [10] = 7 days later, intraarticular 2 mg
structure (smiles),measurement,setting,value
"CN1[C@@H]2CC[C@H]1C[C@@H](OC(=O)c1c[nH]c3ccccc13)C2 [tropisetron, Indol-3-yl-carboxylic acid-endo-8-methyl-8-aza-bicyclo[3,2,1]-oct-3-yl-ester]",rest pain (VAS),"[1]; patient (i), epicondylitis, before injection 30 mm",0 mm
same,rest pain (VAS),"[1]; patient (ii), periarthropathia humeroscapularis, before injection 85 mm",45 mm
same,rest pain (VAS),"[1]; patient (iii), epicondylitis, before injection 35 mm",0 mm
same,rest pain (VAS),[2]; 24 hours later,35 mm
same,rest pain (VAS),[2]; at day 7,18 mm
same,further improvements after injection,[3],increase of strength and of flexibility of the affected body part
same,period within which severity of pain decreases,[3]; all three patients,≤ 60 min
same,time within which virtually complete remittal is achieved,[3]; all three patients,≤ 24 h
same,movement of the knee joint,[4]; 2 mg i.v. daily,clearly improved
same,time until exudation from the knee joint is completely inhibited,"[4]; 2 mg i.v. daily, without any other medication",≤ 8 days
same,symptoms,"[4]; 2 mg i.v., 15 injections over 17 days, following continuation of injections",virtually free of symptoms
same,persistence of improvement in condition after completion of therapy,"[4]; 2 mg i.v., 15 injections over 17 days, observation following completion of therapy",continues over a further 7 days observation
same,pain,"[4]; 2 mg i.v., 24 hours after the first i.v. injection",significant improvement of pain
same,symptoms,[5]; both patients examined over one week following treatment,free of symptoms
same,remission from pain,"[5]; two patients (shoulder joint, knee joint), within a few hours",almost complete remission from pain
same,joint swelling and effusion,[6]; [9],significant reduction of joint swelling and effusion
same,knee joint circumference,[6]; [9],41 cm
same,pain under strain (VAS),[6]; [9],70
same,pain at rest in the VAS (0-100),"[6]; 24 hours after intraarticular injection of 2 mg, on methotrexat and prednisolone",0
same,knee joint circumference,[6]; [10],40.5 cm
same,pain under strain (VAS),[6]; [10],57
same,pain at rest in the VAS (0-100),[6]; [10],0
same,pain at rest on the visual analog scale for pain (0-100),[7]; after 24 hours,25
same,pain at rest on the visual analog scale for pain (0-100),[7]; after 2 days,13
same,effusion,[7]; after 7 days,gone
same,overheating of the knee joint,[7]; after 7 days,gone
same,pain at rest on the visual analog scale for pain (0-100),[7]; after 7 days,10
same,pain at rest on the visual analog scale for pain (0-100),[7]; follow-up check after 17 days,4
same,"pain under strain, visual analog scale (0-100)","[7]; fourth of four printed values, time point unclear (7 or 17 days)",10
same,"pain under strain, visual analog scale (0-100)","[7]; second of four printed values, presumably after 24 hours, first value (before) 75",45
same,"pain under strain, visual analog scale (0-100)","[7]; third of four printed values, time point unclear (2 or 7 days)",10
same,pain,[8]; after 45 min.,marked reduction of pain
same,effusion from the knee joint,[8]; after 5 hours,major reduction of effusion
same,symptoms,"[8]; without further therapy, observation period of 5 days",free of symptoms
